# Entries after “also recorded” stand apart in the source; their conditions may differ. Like-named read-outs stand apart in the source and are kept apart here.
# What was measured:
# [1] = tested on: mouse heart allograft; details: cited from earlier work
# [2] = mice, intra-peritoneal 32 mg/kg/day for 14 days; cited from earlier work
# [3] = molecular target: T1, human estrogen receptor ER-beta (Homo sapiens, UniProt Q92731); experiment: ER-beta MMTV-ERE-LUC luciferase reporter gene assay in transiently co-transfected Hela cells; type: cell-based; details: for ER-alpha versus ER-beta selectivity (in words): compared with ER-alpha
# T1 construct: expressed in transfected cells; host or cells: Hela cells, transient co-transfection with lipofectamine
# T1 sequence (Q92731 whole entry): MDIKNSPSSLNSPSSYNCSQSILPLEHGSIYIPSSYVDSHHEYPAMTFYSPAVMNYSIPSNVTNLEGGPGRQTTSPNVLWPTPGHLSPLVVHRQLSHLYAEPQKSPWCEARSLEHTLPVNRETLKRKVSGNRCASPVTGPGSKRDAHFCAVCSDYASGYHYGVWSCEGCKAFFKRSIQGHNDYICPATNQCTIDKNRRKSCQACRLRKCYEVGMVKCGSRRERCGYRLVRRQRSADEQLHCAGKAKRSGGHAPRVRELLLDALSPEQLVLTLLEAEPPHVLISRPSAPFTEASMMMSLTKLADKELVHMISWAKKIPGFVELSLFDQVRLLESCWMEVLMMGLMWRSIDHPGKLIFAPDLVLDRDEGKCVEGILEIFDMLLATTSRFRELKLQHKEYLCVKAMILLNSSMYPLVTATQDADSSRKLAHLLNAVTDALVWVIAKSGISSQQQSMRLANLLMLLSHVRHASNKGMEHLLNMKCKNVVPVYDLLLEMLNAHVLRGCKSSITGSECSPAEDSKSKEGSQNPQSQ
# Description: (§1) To assay estrogen receptor agonist activity, Hela cells were grown in 24-well microtiter plates and then transiently co-transfected with two plasmids using lipofectamine. The first plasmid comprised DNA encoding human estrogen receptor (either ER-alpha or ER-beta), and the second plasmid comprised an estrogen-driven reporter system comprising: a luciferase reporter gene (LUC) whose transcription is under the control of upstream regulatory elements comprising 4 copies of the vitelogenin estrogen response element (ERE) cloned into the mouse mammary tumor virus (MMTV) promoter (the full name for the reporter system being “MMTV-ERE-LUC”). Cells were exposed to herbal extracts in RPMI 1640 medium, supplemented with 10% charcoal-treated fetal calf serum, 2 mM L-glutamine, 0.1 mM non-essential amino acids and 1 mM sodium pyruvate for 42-48 hours at 37° C. in a 5% carbon dioxide incubator. […] Replicate wells exposed to the solvent in which herbal extracts were dissolved (i.e. ethanol or methanol) were used as negative controls. After the 42-48 hr incubation period, cells were rinsed with phosphate buffered saline(PBS), lysis buffer (Promega Corp) was added, and cell lysates collected for measurement of luciferase activity with a luminometer. […] All data points are in triplicate.
# [4] = molecular target: T2, human estrogen receptor ER-alpha (Homo sapiens, UniProt P03372); experiment: ER-alpha MMTV-ERE-LUC luciferase reporter gene assay in transiently co-transfected Hela cells; type: cell-based
# T2 construct: expressed in transfected cells; host or cells: Hela cells, transient co-transfection with lipofectamine
# T2 sequence (P03372 1-595): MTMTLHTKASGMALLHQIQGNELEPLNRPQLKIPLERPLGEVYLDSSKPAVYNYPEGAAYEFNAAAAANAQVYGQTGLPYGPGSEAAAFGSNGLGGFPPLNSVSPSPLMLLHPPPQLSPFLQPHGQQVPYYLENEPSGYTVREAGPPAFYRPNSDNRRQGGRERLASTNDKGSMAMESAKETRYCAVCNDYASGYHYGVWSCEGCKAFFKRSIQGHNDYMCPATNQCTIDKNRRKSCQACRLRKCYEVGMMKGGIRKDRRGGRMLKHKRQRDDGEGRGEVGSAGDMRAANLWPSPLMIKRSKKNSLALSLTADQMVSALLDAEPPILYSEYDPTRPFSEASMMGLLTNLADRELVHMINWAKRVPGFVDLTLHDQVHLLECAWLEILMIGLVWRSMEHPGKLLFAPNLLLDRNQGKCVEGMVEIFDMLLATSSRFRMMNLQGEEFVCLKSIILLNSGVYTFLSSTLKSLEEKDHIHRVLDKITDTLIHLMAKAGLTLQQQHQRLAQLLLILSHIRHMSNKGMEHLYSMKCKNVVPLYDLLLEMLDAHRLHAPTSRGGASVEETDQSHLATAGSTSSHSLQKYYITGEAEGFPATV
# Description: as §1
# [5] = tested on: human estrogen receptor (either ER-alpha or ER-beta); experiment: Estrogen receptor bioassay as in Example 1, ER subtype not stated; type: cell-based; details: under the conditions described herein
# Description: as §1
# [6] = tested on: estrogen receptors; details: cited from earlier work
Structure (SMILES),ER-beta agonist activity (in words) [3],"Estrogenic activity (fold increased over vehicle), ER-beta ([3]; dose 0.05 μg/ml)","Estrogenic activity (fold increased over vehicle), ER-beta ([3]; dose 0.5 μg/ml)","Estrogenic activity (fold increased over vehicle), ER-beta ([3]; dose 5 μg/ml)",ER-alpha agonist activity (in words) [4],"Estrogenic activity (fold increased over vehicle), ER-alpha ([4]; dose 0.05 μg/ml)","Estrogenic activity (fold increased over vehicle), ER-alpha ([4]; dose 0.5 μg/ml)","Estrogenic activity (fold increased over vehicle), ER-alpha ([4]; dose 5 μg/ml)",Relative potency of estrogenic activity compared to genistein [6],further results
COc1ccc(-c2oc3c(CC=C(C)C)c(O)cc(O)c3c(=O)c2O[C@@H]2O[C@@H](C)[C@H](O)[C@@H](O)[C@H]2O)cc1 [Baihuoside I],–,–,–,–,–,–,–,–,–,Mouse heart allograft survival [1]: effective at prolonging mouse heart allograft survival; Side effects [2]: no side effects
"CC(C)=CCc1cc(-c2cc(=O)c3c(O)cc(O)cc3o2)ccc1O [Compound I, yinyanghuo D]",can activate both ER-alpha and ER-beta,2.598 fold,18.763 fold,13.289 fold,can activate both ER-alpha and ER-beta,4.940 fold,9.089 fold,11.618 fold,–,ER-alpha versus ER-beta selectivity (in words) ([3]; listed as AF6): activate both ER-alpha and ER-beta equally; also recorded: estrogen receptor agonist activity on both ER-alpha and ER-beta; ER-beta agonist activity (in words) ([3]; listed as AF6): strong ER-alpha and ER-beta activity; ER-alpha agonist activity (in words) ([4]; listed as AF6): strong ER-alpha and ER-beta activity
CC(C)=CCc1cc(-c2cc(=O)c3c(O)cc(O)cc3o2)cc2c1OC(C(C)(C)O)C2O (stereo not drawn) [Compound III],activated ER-beta strongly,1.514 fold,6.093 fold,23.132 fold,very weak ER alpha activity,1.031 fold,2.357 fold,2.694 fold,–,Concentration with ER-beta activity equivalent to estradiol at 1 nM [3]: 15 ng/mL; Factor by which ER-beta is activated more strongly than ER-alpha ([3]; at 5 μg/ml): about nine-fold; ER-alpha versus ER-beta selectivity (in words) [3]: activates ER-beta more strongly than it activates ER-alpha; also recorded: shows specificity for ER-beta; ER-alpha versus ER-beta selectivity (in words) ([3]; listed as AF1): stronger than that observed for ER-alpha estrogen receptors; ER-beta stimulatory activity compared with estradiol (in words) ([3]; dose-dependent): stronger than that observed for estradiol; ER-alpha activity as % of that of estradiol [4]: 26%
C=C(C)C(O)Cc1cc(-c2cc(=O)c3c(O)cc(O)cc3o2)cc(CC(O)C(=C)C)c1O (stereo not drawn) [Compound II],–,–,–,–,–,–,–,–,–,Estrogenic activity (in words) [5]: no detectable estrogenic activity
O=c1cc(-c2ccc(O)c(O)c2)oc2cc(O)cc(O)c12 [Luteolin],–,–,–,–,–,–,–,–,58%,–
O=c1c(O)c(-c2ccc(O)c(O)c2)oc2cc(O)cc(O)c12 [quercetin],–,–,–,–,–,–,–,–,10%,–

# Source: US6750248B2, “Methods for preparing an estrogenic preparation and isolated estrogenic compounds from a plant and uses thereof” (National University of Singapore, priority 2001, dated 2004)
